How the values were obtained:
[1] = test system: BMSC (primary human bone marrow mesenchymal stromal cells); assay: absolute EC50 for viability; higher = less sensitive
[2] = test system: BMSC (primary human bone marrow mesenchymal stromal cells); assay: drug sensitivity score (DSS); higher = more sensitive

| SMILES | absolute EC50 for viability [1] [µM] | drug sensitivity score [2] |
| --- | --- | --- |
| C[C@@H]1COCCN1c1cc(C2([S@](C)(=N)=O)CC2)nc(-c2cc[nH]c3nccc2-3)n1 [AZD6738] | > 25 | 4.6 |
| Nc1ncnc2c1c(COc1cccc(Cl)c1)nn2C1CCOCC1 | > 10 | 0 |
| Cc1ccc(=O)n(-c2ccccc2)c1 [Pirfenidone] | > 10 | 0 |
| C=C1C[C@@H]2[C@H](CC[C@]3(C)C(=O)CC[C@@H]23)[C@@]2(C)C=CC(=O)C=C12 [Exemestane] | > 10 | 0 |
| CCc1cnn2c(NCc3ccc[n+]([O-])c3)cc(N3CCCC[C@H]3CCO)nc12 [Dinaciclib] | > 1 | 8.1 |
| Cc1cc(C)c(CNC(=O)c2cc(-c3ccc(CN4CCOCC4)cc3)cc3c2cnn3C2CCCC2)c(=O)[nH]1 [EPZ-5687] | 9.93 | 0 |
| COc1ccc(-c2ccc3c(N4CCOC[C@@H]4C)nc(N4CCOC[C@@H]4C)nc3n2)cc1CO [AZD8055] | 0.207 | 17.8 |
| CN(C(=O)c1ccc(F)cc1C(F)(F)F)C1CCN(c2nnc(-c3ccnn3C)c3ccccc23)CC1 [Taladegib] | > 10 | 0 |
| Cn1cncc1[C@@](N)(c1ccc(Cl)cc1)c1ccc2c(c1)c(-c1cccc(Cl)c1)cc(=O)n2C [Tipifarnib] | > 10 | 4.4 |
| CNC(=O)c1ccc(C)c(-n2c(C)cc(OCc3ccc(F)cc3F)c(Br)c2=O)c1 | > 1 | 0 |
| CC[C@]1(O)C[C@@H]2CN(CCc3c([nH]c4ccccc34)[C@@](C(=O)OC)(c3cc4c(cc3OC)N(C)[C@H]3[C@@](O)(C(=O)OC)[C@H](OC(C)=O)[C@]5(CC)C=CCN6CC[C@]43[C@@H]65)C2)C1 [Vinblastine] | > 1 | 1.9 |
| CO[C@@]12[C@H](COC(N)=O)C3=C(C(=O)C(C)=C(N)C3=O)N1C[C@@H]1N[C@@H]12 [Mitomycin] | > 10 | 0 |
| COc1cc2ncnc(Oc3cccc(NC(=O)Nc4cc(C(C)(C)C(F)(F)F)on4)c3)c2cc1OC | > 10 | 4.6 |
| Nc1nc2cc(-c3ccc4ncc(C(=O)N5CCOCC5)n4c3)ccc2o1 [Serabelisib] | > 10 | 3.3 |
| CCNc1nc(Nc2cc(F)c(C(=O)N3CCOCC3)cc2OC)ncc1C(F)(F)F [GNE-7915] | > 1 | 0 |
| COc1c(C)cnc(Cn2cnc3c(Cl)nc(N)nc32)c1C [BIIB021] | 0.449 | 12 |
| C=CC(=O)N1CC/C(=C\c2ccc(F)c([N+](=O)[O-])c2)C(=O)/C(=C/c2ccc(F)c([N+](=O)[O-])c2)C1 [VLX1570] | 1.4 | 9.6 |
| CCc1cc2c(cc1N1CCC(N3CCOCC3)CC1)C(C)(C)c1[nH]c3cc(C#N)ccc3c1C2=O [Alectinib] | > 1 | 0 |
| Cc1cnc(NC(=O)Nc2cc(Br)c(C)cc2OC[C@@H]2CNCCO2)cn1 [Rabusertib] | > 1 | 0 |

| SMILES | absolute EC50 for viability [1] [µM] | drug sensitivity score [2] |
| --- | --- | --- |
| CO[C@H](C(=O)[C@@H](O)[C@@H](C)O)[C@@H]1Cc2cc3cc(O[C@H]4C[C@@H](O[C@@H]5C[C@@H](O)[C@H](O)[C@@H](C)O5)[C@H](O)[C@@H](C)O4)c(C)c(O)c3c(O)c2C(=O)[C@H]1O[C@H]1C[C@@H](O[C@@H]2C[C@@H](O)[C@@H](O[C@@H]3C[C@](C)(O)[C@H](O)[C@@H](C)O3)[C@@H](C)O2)[C@H](O)[C@@H](C)O1 [Plicamycin] | > 10 | 2.1 |
| COCCOc1cnc2ccn([C@H](C)c3nnc4c(F)cc(-c5cnn(C)c5)cn34)c(=O)c2c1 [AMG-337] | 9.93 | 0 |
| O[C@H]1CC[C@H](Nc2ncc3nc(Nc4c(F)cc(F)cc4F)n([C@H]4CCOC4)c3n2)CC1 [Tanzisertib] | > 10 | 0.3 |
| COc1ccc(-c2nc(N3CCOCC3)c3sc(CN(C)c4ncc(C(=O)NO)cn4)cc3n2)cn1 [CUDC-907] | 0.0649 | 24.6 |
| COc1ccc(C[C@H](NC(=O)[C@H](C)NC(=O)CN2CCOCC2)C(=O)N[C@@H](Cc2ccccc2)C(=O)C2(C)CO2)cc1 (stereo in doubt) [ONX-0914] | 0.391 | 16.1 |
| C#Cc1cccc(Nc2ncnc3cc(OCCOC)c(OCCOC)cc23)c1 [Erlotinib] | > 10 | 1.5 |
| NCC(=O)Nc1ccc(-n2nc(C(F)(F)F)cc2-c2ccc3c(ccc4ccccc43)c2)cc1 | > 25 | 0.5 |
| Cc1c(-c2ccc(N3CCc4cccc(C(=O)Nc5nc6ccccc6s5)c4C3)nc2C(=O)O)cnn1CC12CC3CC(CC(C3)C1)C2 | > 1 | 0 |
| CCS(=O)(=O)N1CCN(c2ccc(Nc3ncc(C(N)=O)c(NC4CC4)n3)cc2)CC1 [Cerdulatinib] | > 10 | 5.1 |
| Cc1ccc(Nc2nccc(N(C)c3ccc4c(C)n(C)nc4c3)n2)cc1S(N)(=O)=O [Pazopanib] | > 10 | 2.1 |
| CCn1cc(-c2ccnc3[nH]c(-c4cccc(CN(C)C)c4)cc23)c(-c2ccc(NC(=O)N(C)C)cc2)n1 | > 1 | 1.5 |
| Nc1ccn([C@@H]2O[C@H](CO)[C@@H](O)[C@@H]2O)c(=O)n1 [Cytarabine] | > 10 | 1.2 |
| CN(c1ncccc1CNc1nc(Nc2ccc3c(c2)CC(=O)N3)ncc1C(F)(F)F)S(C)(=O)=O | > 10 | 3.2 |
| CC(C)(C)c1cnc(CSc2cnc(NC(=O)C3CCNCC3)s2)o1 [SNS-032] | > 10 | 12.8 |
| FC(F)(F)c1ccc(CNc2ccc(Cc3c[nH]c4ncc(Cl)cc34)cn2)cn1 [Pexidartinib] | > 10 | 3.6 |
| CC(C)NC[C@@H](C(=O)N1CCN(c2ncnc3c2[C@H](C)C[C@H]3O)CC1)c1ccc(Cl)cc1 [Ipatasertib] | > 10 | 4.7 |
| COC(=O)c1ccc([C@H]2c3[nH]c4ccccc4c3C[C@H](C(=O)OC)N2C(=O)CCl)cc1 [RSL3] | > 10 | 0 |
| C[C@]12C=CC(=O)C=C1CC[C@@H]1[C@@H]2[C@@H](O)C[C@@]2(C)[C@H]1CC[C@]2(O)C(=O)CO [Prednisolone] | > 10 | 0 |
| N#Cc1ccc(COC[C@H]2O[C@@H](n3c(NCc4ccc(Cl)c(Cl)c4)nc4c(N)ncnc43)[C@H](O)[C@@H]2O)cc1 | > 10 | 2.2 |

| SMILES | absolute EC50 for viability [1] [µM] | drug sensitivity score [2] |
| --- | --- | --- |
| Cn1nccc1Nc1nccc(-c2ccn([C@H](CO)c3ccc(Cl)c(F)c3)c(=O)c2)n1 [Ravoxertinib] | > 10 | 0 |
| NC(=O)c1cccc(-c2cccc(OC(=O)NC3CCCCC3)c2)c1 [URB597] | > 1 | 0 |
| O=C(NC[C@H](O)CN1CCc2ccccc2C1)c1cc(NC2COC2)ncn1 | > 10 | 0 |
| Cc1cccc(-c2[nH]c(CNc3ccccc3F)nc2-c2ccc3ncnn3c2)n1 [TEW-7197] | > 2.5 | 2.1 |
| COc1cc(N2CCC(N3CCN(C)CC3)CC2)ccc1Nc1ncc(Cl)c(Nc2ccccc2P(C)(C)=O)n1 [Brigatinib] | 0.945 | 2.8 |
| CO[C@@H](C)Cn1c(=O)n(C)c2cnc3ccc(-c4cncc(C(C)(C)O)c4)cc3c21 | 0.257 | 10.5 |
| Cc1ccc(-c2cc(C(F)(F)F)nn2-c2ccc(S(N)(=O)=O)cc2)cc1 [Celecoxib] | > 10 | 0 |
| CCCCOc1nc(N)c2c(n1)N(Cc1cccc(CN3CCCC3)c1)CC(=O)N2 [Vesatolimod] | > 10 | 0 |
| CO[C@H]1C[C@@H]2CC[C@@H](C)[C@@](O)(O2)C(=O)C(=O)N2CCCC[C@H]2C(=O)O[C@H]([C@H](C)C[C@@H]2CC[C@@H](OCCO)[C@H](OC)C2)CC(=O)[C@H](C)/C=C(\C)[C@@H](O)[C@@H](OC)C(=O)[C@H](C)C[C@H](C)/C=C/C=C/C=C/1C [Everolimus] | > 0.1 | 5.2 |
| CCNC(=O)C[C@@H]1N=C(c2ccc(Cl)cc2)c2cc(OC)ccc2-n2c(C)nnc21 [Molibresib] | > 10 | 3.3 |
| CNC(=O)c1ccccc1Sc1ccc2c(/C=C/c3ccccn3)n[nH]c2c1 [Axitinib] | > 10 | 7.9 |
| C[C@@H]1CCN(C(=O)CC#N)C[C@@H]1N(C)c1ncnc2[nH]ccc12 [Tofacitinib] | > 5 | 0 |
| Cc1ncc(-c2ccnc(Nc3ccc(S(C)(=O)=O)cc3)n2)n1C(C)C [AZD-5438] | > 10 | 1.5 |
| Cc1ccc(NS(=O)(=O)c2cccc(C#N)c2)c2[nH]cc(C#N)c12 [E7820] | > 50 | 0 |
| CONC(=O)c1ccccc1Nc1cc(Nc2cc(C)nn2C(C)C)ncc1Cl | > 1 | 0.1 |
| COc1ncc(-c2ccc3nccc(-c4ccnnc4)c3c2)cc1NS(=O)(=O)c1ccc(F)cc1F [Omipalisib] | 0.0979 | 11.6 |
| Cc1cc(Nc2nc(N[C@@H](C)c3ncc(F)cn3)ncc2Cl)[nH]n1 [AZD1480] | > 1 | 0.6 |
| COc1cccc2c1C(=O)c1c(O)c3c(c(O)c1C2=O)C[C@@](O)(/C(CO)=N/NC(=O)CCCCCN1C(=O)C=CC1=O)C[C@@H]3O[C@H]1C[C@H](N)[C@H](O)[C@H](C)O1 [Aldoxorubicin] | 0.945 | 7.3 |
| CN(C)C(=N)NC(=N)N [Metformin] | > 100 | 0 |
